Test results from patent US6355428B1, “Nucleic acid ligand interaction assays” (Genelabs Technologies, Inc., priority 1998, dated 2002).

How the values were obtained:
[1] = tested on: 5′-CTTTTTTTTT-3′ (SEQ ID NO: 1) F/Q indicator pair; assay: Fluorescence quenching direct binding assay, A/T rich DNA; settings: increasing netropsin; tRNA added; room temperature
Experimental: (§1) The specific examples described in this section employ fluorescence quenching as the detection system. In these examples, because conditions are adjusted to maintain the oligonucleotides in single-stranded form in the absence of the ligand, the assay starts with the system at a high or maximum level of fluorescence, and fluorescence generally decreases, depending on binding affinity, as the ligand is added.
(§2) In the Figure legends, RNA oligonucleotides are denoted by an “r” at the beginning of the sequence, and single stranded controls by “ss” at the end of the sequence. These single stranded sequence, are used alone in control experiments, which thus employ only an “F” strand and no complementary quenching strand. Any quenching of fluorescence that is not due to hybridization can thus be acounted for. Maximum quenching expected on complete hybridization of these oligonucleotides is 85-90%; therefore some signal remains after complete hybridization. […]
(§3) According to the general method described above, increasing amounts of netropsin or actinomycin, respectively, were added to mixtures of selected F/Q indicator oligonucleotide pairs, whose sequences are shown in the legends of FIGS. 1 and 3. […] The Figures show the level of fluorescence observed, relative to a control having no added drug, for each indicator pair (or single strand) as the level of added drug was increased. […]

[2] = tested on: 5′-GCGGTATTT-3′ (SEQ ID NO: 12) F/Q indicator pair; assay: Fluorescence quenching direct binding assay, mixed DNA; settings: increasing netropsin; tRNA added; room temperature
Experimental: as §1, §2, §3

[3] = tested on: CTTTATTATTTT (AT-rich) DNA duplex (SEQ ID NO: 2); assay: SPA direct binding assay, A/T-rich indicator duplex
Source text: (§4) This technology can be applied to studies of ligand binding as disclosed herein. Example 13, below, describes the use of the assay in a high throughput screening method, using the SPA detection system. In this example, the first oligonucleotide is labeled with biotin, and is then tightly bound to streptavidin-coated SPA beads via the strong biotin/streptavidin interaction. These beads are impregnated with scintillant. The second oligonucleotide is labeled with a weak β-emitter, such as ^3H or ^33P. The radioactive second oligonucleotide is mixed with a solution of the beads under conditions at which the first and second oligonucleotides exist primarily as single strands, as described above. The signal will thus be low, as the oligonucleotides are non-hybridized. When ligand is added, the duplex form is stabilized, and the increased proximity of the radioactive isotope (e.g., ^3H, ^33P) in the second oligonucleotide causes the bead to which the first oligonucleotide is bound to scintillate. A signal thus indicates the presence of an effective binding ligand molecule; test sequences giving higher signals indicate the relative preference for different sequences.
(§5) The data in Table II compare raw signal counts from SPA assays using three different oligonucleotides and three concentrations (0, 100, and 500 nM) of the DNA binding drug distamycin. The oligonucleotides used were G/C-rich (CCGCGCC; SEQ ID NO: 6), A/T-rich (CTTTATTATTTT; SEQ ID NO: 2), or mixed sequence (GCGGTATTT; SEQ ID NO: 12) DNA duplexes. One strand of the duplex was synthesized with a 5′-biotin label, the other strand was labeled with ^33P, as described in Example 13.
(§6) Indicator oligonucleotides as shown in Table 1 were used in this assay, as shown in Table II and FIGS. 4A-E. One strand of each duplex was labeled with biotin at the 5′-end, and the complementary strand was 3′-labeled with ^33P. The two complementary strands were incubated with streptavidin-coated SPA beads (Amersham, Arlington Heights, Ill.) at room temperature in a buffer containing 20 mM HEPES, pH 7.5, 0.1 mM EDTA, and 20 mM NaCl. In the absence of ligand, and under these conditions, the oligonucleotides exist in single-stranded conformation. As a result, the oligonucleotide containing the radioactive label is not in close proximity to the SPA bead, and the light given off by the beads is low, i.e., at background. As a duplex-stabilizing ligand is added, the radioactive ^33P is brought into close proximity to the SPA bead, and the light emitted from the SPA bead increases. Accordingly, each of five known DNA-binding compounds was added in increasing concentrations, and the effect on scintillation count was observed, giving the results shown in FIGS. 4A-E.

[4] = tested on: CCGCGCC (GC-rich) DNA duplex (SEQ ID NO: 6); assay: SPA (scintillation proximity) direct binding assay, G/C-rich indicator duplex
Source text: as §4, §5
as §6, with “The two complementary strands were incubated with streptavidin-coated SPA beads (Amersham, Arlington Heights, Ill.) at room temperature in a buffer containing 20 mM HEPES, pH 7.5, 0.1 mM EDTA, and 20 mM NaCl.” left out

| CPM ([3]; 100 nM Distamycin, 10 mM Na+) | CPM ([3]; 100 nM Distamycin, 50 mM Na+) | CPM ([3]; 500 nM Distamycin, 10 mM Na+) | CPM ([3]; 500 nM Distamycin, 50 mM Na+) | CPM ([4]; 100 nM Distamycin, 10 mM Na+) | CPM ([4]; 100 nM Distamycin, 50 mM Na+) | CPM ([4]; 500 nM Distamycin, 10 mM Na+) | CPM ([4]; 500 nM Distamycin, 50 mM Na+) | Structure (SMILES) | binding (decrease in fluorescence, FIG. 3A) [1] | binding (decrease in fluorescence, FIG. 3A) [2] |
| --- | --- | --- | --- | --- | --- | --- | --- | --- | --- | --- |
| – | – | – | – | – | – | – | – | Cn1cc(NC(=O)c2cc(NC(=O)CN=C(N)N)cn2C)cc1C(=O)NCCC(=N)N [Netropsin, netropsin] | strongly prefers | binds well |
| 2218 CPM | 2448 CPM | 3332 CPM | 3352 CPM | 699 CPM | 889 CPM | 744 CPM | 666 CPM | Cn1cc(NC(=O)c2cc(NC(=O)c3cc(NC=O)cn3C)cn2C)cc1C(=O)NCCC(=N)N [Distamycin, distamycin] | – | – |
